Test system: rumen fluid
Test: Rumen in vitro (RIV) assay: methane production from incubated rumen fluid
Assay type: cell-based, cattle
Settings: for RIV % methane reduction: 60 mL rumen fluid-buffer mixture
Method: The compounds of the present invention were initially screened for activity using an in vitro fully automated incubation system for the measurement of total gas production and gas composition (methane and hydrogen). The system used is described in detail in the paper by Muetzel et al. (2014; Animal Feed Science and Technology 196, 1-11). The system in this specification is referred to as the rumen in vitro system or RIV. The RIV system provides a relatively simple tool for determining the rate and production of methane and also whether the rate and production of methane is inhibited or reduced by a particular compound or feed. Rumen in vitro assays use rumen fluid from donor animals (typically either sheep or cattle) which is typically combined with a buffer and then incubated in sealed fermentation vessels at 39° C. for either 24 or 48 h. These assays systems have been well-characterised and used by the scientific community over the last two decades (Rymer et al. 2005). The system that has been used here to characterise the effects of inhibitors on methane production and gas production, and the formation of H2, was described by Muetzel et al. (2014). Rumen in vitro assay systems reflect what can occur in the rumen in vivo, but only short-term, due to their short incubation times (typically not exceeding 48 h) which is limited by its buffering capacity and the fact that it is a closed system. Stock solutions of inhibitors were re-suspended in dimethylformamide (DMF) at concentrations 1000-fold higher than the highest used for the assays. Any further dilutions were also prepared using DMF. The total amount of inhibitor solution added to the rumen fluid-buffer mixture (60 mL) was 60 μl. Incubations used 60 ml of medium containing 12 ml of filtered rumen fluid and 48 ml of buffer in serum bottles for 24-48 h, essentially as described by Muetzel et al. (2014). Two fistulated cattle were used as donor animals for rumen fluid and treatments were incubated in duplicate bottles. Sets of duplicate incubation vials that contained ryegrass (with rumen fluid-buffer mixture), and ryegrass with 30 μM bromoethanesulfonate (BES) were also incubated as negative and positive controls, respectively. One experiment consists of 2 replicates of an inhibitor at any one concentration run at the same time, and a run can contain up to 32 bottle, including positive (30 µM BES) and negative (no inhibitor added) controls. Compound 1, for example, was tested using the 60 mL rumen in vitro assay system at 30 μM, 10 μM, 2 μM and 1 μM final concentrations and compared to a positive control with 30 μM BES. […] Compound 3 was very active in the RIV and only the lower concentrations of 2 μM and 1 μM were measured.

Structure (SMILES) | RIV % methane reduction (1 μM compound) | RIV % methane reduction (2 μM compound) | activity in the RIV (in words) (only 2 μM and 1 μM measured) | RIV % methane reduction (10 μM compound) | RIV % methane reduction (30 μM compound) | inhibition at 2 µM (Bos taurus, 2 μM, at 18 h, 60 mL rumen in vitro assay system, read-out: inhibition level (methane)) | inhibition at 30 µM (Bos taurus, 30 μM, at 18 h, 60 mL rumen in vitro assay system, read-out: inhibition level (methane))
Cn1c(=O)c2cc3c(=O)n(CCOc4no[n+]([O-])c4S(=O)(=O)c4ccccc4)c(=O)c3cc2c1=O [Compound 3] | 49.0% | 80.4% | very active | – | – | – | –
O=c1[nH]c(=O)c2cc3c(=O)n(CCOc4no[n+]([O-])c4S(=O)(=O)c4ccccc4)c(=O)c3cc12 [Compound 1, 3-(phenylsulfonyl)-4-(2-(1,3,5,7-tetraoxo-3,5,6,7-tetrahydropyrrolo[3,4-f]isoindol-2(1H)-yl)ethoxy)-1,2,5-oxadiazole 2-oxide] | 8.9% | 23.3% | – | 67.8% | 87.1% | ~23.3% | ~87.1%
O=c1c2cc3c(=O)n(CO[N+](=O)[O-])c(=O)c3cc2c(=O)n1CCOc1no[n+]([O-])c1S(=O)(=O)c1ccccc1 [Compound 2, 4-(2-(6-((nitrooxy)methyl)-1,3,5,7-tetraoxo-3,5,6,7-tetrahydropyrrolo[3,4-f]isoindol-2(1H)-yl)ethoxy)-3-(phenylsulfonyl)-1,2,5-oxadiazole 2-oxide] | 7.2% | 30.6% | – | 56.1% | 85.9% | – | –
